≈ marks a conversion by molar mass, not a printed value. Read-outs that look alike come from different tables or passages of the source.
What was measured:
[1] = Thermodynamic (equilibrium) solubility; type: physicochemical; details: read-out: thermodynamic (or equilibrium) solubility
Source text: (§1) The main reason for failure in drug development is poor biopharmaceutical properties, which include low aqueous solubility, chemical instability.
(§2) The biopharmaceutical properties of the synthesized M13 (5-glutathione-6-shogaol) were characterized.

[2] = system: Caco-2/BBe cells; assay: MTT viability assay, 2D culture; type: cell-based, human
Protocol: (§3) PBMCs were provided by STEMCELL Technologies (STEMCELL Canada Inc.) and maintained in ImmunoCult™-XF T-cell Expansion Medium (Cat #10981). HIEC-6 cells were maintained in OptiMEM 1 Reduced Serum Medium supplemented with 20 mM HEPES, 10 mM GlutaMAX, 10 ng/mL Epidermal Growth Factor, 4% (v/v) fetal bovine serum (FBS), and 1% penicillin-streptomycin (PS). HCT-116 cells were maintained in ATCC-formulated McCoy's 5a medium, supplemented with 10% (v/v) FBS and 1% PS. Caco-2/BBe cells were grown in DMEM supplemented with 10% (v/v) FBS and 1% PS (v/v). Human colon cancer stem cells (HC-CSC) were maintained in complete growth media with serum and antibiotics (Cat #M36112-39S) from Celprogen Inc. (Torrance, CA, USA).
(§4) The […] (MTT) assay was used to study the effects of M13 on the viability of four 2D-cultured human intestinal cell lines (HIEC-6, HCT-116, Caco-2/BBe, and HC-CSC).
Next, the anti-cancer activities of free M13, NL, and M13-NL were compared against Caco-2/BBe cells.

[3] = Single-dose maximum tolerated dose (MTD) general toxicity study; type: in vivo, CD-1 mice
Protocol: A general toxicity study was performed by using maximum tolerated dose (MTD) of M13. Eight-week old mice were orally administered 1000 mg/kg or with PBS. On day one and day 7, mice were examined for weight loss and clinical scores were noted. Clinical signs were scored by assessing activity, appearance, and body condition for seven days.
To further determine the potential acute toxicity of M13 in vivo, a single-dose maximum tolerated dose (MTD) study of M13 was performed in CD-1 mice. Eight-week-old female mice were orally administered a single dose of M13 (1000 mg/kg) or PBS (as control) on day 0 and subjected to regular water and diet for 7 days.

[4] = system: cancer-related proteins; assay: Proteome Profiler Human XL Oncology Array on Caco-2/BBe cell lysates; type: cell-based; details: 24 hours
Protocol: The mechanism by which M13 exerts its anti-cancer effects was explored. Cell lysates of Caco-2/BBe cells incubated for 24 hours with free M13, NL, or M13-NL were hybridized on cancer-related protein array membranes (Proteome Profiler™ Human XL Oncology Array), and cell cycle control/phosphorylation profiling protein antibody microarray slides (Cell Cycle Control Phospho Antibody Array).

[5] = Partition between octanol and aqueous buffer (Log D7.4); type: physicochemical; details: pH 7.4
Source text: as §1, §2

[6] = system: NF-κB signaling pathway; assay: NF-κB-dependent luciferase activity in NF-κB/293/GFP-Luc cells treated with TNF-α; type: cell-based
Protocol: First, the anti-inflammatory activity of MLY compounds on the NF-κB signaling pathway was examined using the NF-xB/293/GFP-LucTnl cell line (System Biosciences). This cell line is specifically designed for use in quantitatively monitoring (by luciferase intensity) transcriptional activation related to the NF-κB signal transduction pathway in vitro. Treatment of NF-κB/293/GFP-Luc™ cells with 10 ng/ml TNF-α for 18 hours induced strong activation of the NF-κB signal transduction pathway (FIGS. 8A and 8B). […] MLY2 and MLY8 induced a strongest 90% reduction of NF-κB activation the anti-inflammatory effect of MLY 2 and 8 was dose-related (FIG. 9). The dose to reduce the NF-κB activation by 50% was […] for M13, 5 μM for MLY2 and 11 μM for MLY8 (FIG. 9).

[7] = system: Vero cells; details: added one-hour post-infection setting
Protocol: Virus and formulations were then left on the cells for the entire duration of the experiment (24 hours). The cytotoxicity of the same range of concentrations of formulations was determined by MTT assay.
The antiviral plates were incubated for 1 hour at 37° C., 5% CO2. The cytotoxicity plates were incubated for 24 hours at 37° C., 5% CO2.
After 24 hours, the infection plates were washed with PBS, fixed for 30 minutes with 4% formaldehyde, washed again with PBS, and stored in PBS at 4° C. until staining. The cytotoxicity plate was treated with MTT to determine cell viability.
Cytotoxicity was detected by MTT assay. Briefly, the MTT reagent (Sigma, M5655) was added to the cells for 2 hours at 37° C., 5% CO2, after which the media was removed, and the precipitate solubilized with a mixture of 1:1 Isopropanol: DMSO for 20 minutes. The supernatant was transferred to a clean plate and signal was read at 570 nm.

[8] = system: human colon cancer cells (HCT-116); details: cited from earlier work
[9] = system: HCT-116; assay: MTT viability assay, 2D culture; type: cell-based, human
Protocol: as §3, §4

[10] = system: HC-CSC; assay: MTT viability assay, 2D culture; type: cell-based, human
Protocol: as §3, §4

[11] = system: human T lymphocytes; assay: Immunogenic effects on T lymphocytes in cultured PBMCs (flow cytometry); type: cell-based; details: 20 μM, 4-day, vs SC and standard control
Protocol: as §3
To evaluate the immunogenic effects of M13 on human T lymphocytes, PBMCs were cultured in blank medium (standard control), medium containing CD3/CD28 activator (positive control), medium containing solvent (solvent control, SC), and medium containing M13 solution (20 μM). All the groups were cultured in the presence or absence of interleukin-2 (IL-2). After a 4-day incubation, PBMCs were labeled with immunofluorescent dyes and analyzed using flow cytometry.

[12] = Incubation with mouse intestinal microsomes (HPLC); type: in vitro ADME; details: mouse, intestinal microsomes; incubation for 30 minutes; read-out: relative content retained of the input
Source text: as §2

[13] = Kinetic solubility; type: physicochemical
Source text: as §1, §2

[14] = system: HIEC-6 cells; assay: MTT viability assay, 2D culture; type: cell-based; details: Homo sapiens
Protocol: as §3, §4

[15] = CD-1 mice, single oral dose 1000 mg/kg, day 7

CCCCCC(CC(=O)CCc1ccc(O)c(OC)c1)SCC(NC(=O)CCC(N)C(=O)O)C(=O)NCC(=O)O (centres unmarked) [M13, 5-glutathione-6-shogaol]
solubility thermodynamic ([1]; Example 1): 1390 µM (≈ 812 µg/mL)
solubility thermodynamic ([1]; as printed in Example 6): 1390 µM (≈ 811 µg/mL)
fold by which IC50 against HIEC-6 is higher ([2]; HIEC-6 vs Caco-2/BBe): 6 fold
IC50 ([2]; Homo sapiens, Caco-2, 24 h): 16.7 µM
death or differences in physiological indices ([3]; CD-1 mice, single oral dose 1000 mg/kg, 7 days, vs PBS): no significant death or differences
body weight change, spleen-to-body weight ratio, blood physiological and biochemical indices [3, 15]: no significant difference
pathological signs in the anatomical organs [3, 15]: no pathological signs
MTD at 168 h ([3]; mouse, in vivo, single-dose oral, mice): > 1000 mg/kg
weight loss and clinical signs ([3]; oral 1000 mg/kg, seven days of observation, vs PBS): No significant changes
white blood cell number, red blood cell number, hemoglobin levels, parameters of hepatic or renal function ([3]; oral 1000 mg/kg, vs PBS): no significant differences
22 cancer-related proteins, expression vs control group [4]: significantly down-regulated
logD [5]: -1.75
activity at 20 µM ([6]; M13 20 μM, TNF-α 10 ng/ml, 18 hours, read-out: RLU (% with TNFα)): 87.2 ± 8.29%
activity at 50 µM ([6]; M13 50 μM, TNF-α 10 ng/ml, 18 hours, read-out: RLU (% with TNFα)): 9.75 ± 2.78%
activity at 100 µM ([6]; M13 100 μM, TNF-α 10 ng/ml, 18 hours, read-out: RLU (% with TNFα)): 0.81 ± 0.22%
IC50 ([6]; read-out: dose to reduce the NF-κB activation by 50%): ~29 µM
toxicity [7]: low toxicity
bioactivity [8]: exhibited bioactivity
fold by which IC50 against HIEC-6 is higher ([9]; HIEC-6 vs HCT-116): 2.5 fold
IC50 ([9]; Homo sapiens, HCT-116, 24 h incubation): 40.1 µM
fold by which IC50 against HIEC-6 is higher ([10]; HIEC-6 vs HC-CSC): 5.8 fold
IC50 ([10]; Homo sapiens, 24 h incubation): 17.4 µM
proliferation of activated CD4+ and CD8+ lymphocytes ([11]; activated-stage (with IL-2)): reduced proliferation
percentages of CD4+ and CD8+ T-cell populations and T-cell proliferation status ([11]; resting-stage (without IL-2)): similar
remaining at 0.5 h [12]: 86%
solubility kinetic ([13]; Example 1): > 200 µM
solubility kinetic ([13]; as printed in Example 6): > 200 µM
IC50 ([14]; HIEC-6): > 100 µM
IC50 ([14]; HIEC-6, 24 h): > 100 µM

From patent publication US20260285903A1, “SYNTHESIZED BIOLOGICALLY ACTIVE COMPOUNDS AND METHODS OF MAKING AND USING” (Georgia State University Research Foundation, Inc., priority 2023, published 2026)
